Here are results for 13 compounds from PMC11285368, “Chasing Red Herrings: Palladium Metal Salt Impurities Feigning KRAS Activity in Biochemical Assays” (Journal of Medicinal Chemistry, 2024).

Each structure is given as a SMILES string.

Common to all, as to assay type: biochemical
The target in one test is EGFR (Homo sapiens, UniProt P00533). Description: EGFR MALDI. The following applies: read-out: Target #1 IC50. How it is done: (§1) Metal salt solutions for the metal ion interference set (MIIS) were prepared as 10 mM stock solutions in DMSO (see Table 3). All metal salts used have been purchased at highest industrial grade.
The next test relates to off target (ext.). Briefly: WRN ADP-Glo, Target #4. As to the method: as §1
In the next test the test system is off target. Description: MDM2 AlphaScreen, Target #3. As to the method: as §1
For the next test, the target named is LSD1 (Homo sapiens, UniProt O60341). Briefly: LSD1 DELFIA. The settings on record: read-out: Target #1 IC50. As to the method: as §1
Another test has as its target UPAR (Homo sapiens, UniProt Q03405). Briefly: UPA-UPAR AlphaScreen, Target #1. As to the method:
as §1

In a further test the target is T1, SOS1 (Homo sapiens, UniProt Q07889).
T1 sequence (Q07889 1-1333): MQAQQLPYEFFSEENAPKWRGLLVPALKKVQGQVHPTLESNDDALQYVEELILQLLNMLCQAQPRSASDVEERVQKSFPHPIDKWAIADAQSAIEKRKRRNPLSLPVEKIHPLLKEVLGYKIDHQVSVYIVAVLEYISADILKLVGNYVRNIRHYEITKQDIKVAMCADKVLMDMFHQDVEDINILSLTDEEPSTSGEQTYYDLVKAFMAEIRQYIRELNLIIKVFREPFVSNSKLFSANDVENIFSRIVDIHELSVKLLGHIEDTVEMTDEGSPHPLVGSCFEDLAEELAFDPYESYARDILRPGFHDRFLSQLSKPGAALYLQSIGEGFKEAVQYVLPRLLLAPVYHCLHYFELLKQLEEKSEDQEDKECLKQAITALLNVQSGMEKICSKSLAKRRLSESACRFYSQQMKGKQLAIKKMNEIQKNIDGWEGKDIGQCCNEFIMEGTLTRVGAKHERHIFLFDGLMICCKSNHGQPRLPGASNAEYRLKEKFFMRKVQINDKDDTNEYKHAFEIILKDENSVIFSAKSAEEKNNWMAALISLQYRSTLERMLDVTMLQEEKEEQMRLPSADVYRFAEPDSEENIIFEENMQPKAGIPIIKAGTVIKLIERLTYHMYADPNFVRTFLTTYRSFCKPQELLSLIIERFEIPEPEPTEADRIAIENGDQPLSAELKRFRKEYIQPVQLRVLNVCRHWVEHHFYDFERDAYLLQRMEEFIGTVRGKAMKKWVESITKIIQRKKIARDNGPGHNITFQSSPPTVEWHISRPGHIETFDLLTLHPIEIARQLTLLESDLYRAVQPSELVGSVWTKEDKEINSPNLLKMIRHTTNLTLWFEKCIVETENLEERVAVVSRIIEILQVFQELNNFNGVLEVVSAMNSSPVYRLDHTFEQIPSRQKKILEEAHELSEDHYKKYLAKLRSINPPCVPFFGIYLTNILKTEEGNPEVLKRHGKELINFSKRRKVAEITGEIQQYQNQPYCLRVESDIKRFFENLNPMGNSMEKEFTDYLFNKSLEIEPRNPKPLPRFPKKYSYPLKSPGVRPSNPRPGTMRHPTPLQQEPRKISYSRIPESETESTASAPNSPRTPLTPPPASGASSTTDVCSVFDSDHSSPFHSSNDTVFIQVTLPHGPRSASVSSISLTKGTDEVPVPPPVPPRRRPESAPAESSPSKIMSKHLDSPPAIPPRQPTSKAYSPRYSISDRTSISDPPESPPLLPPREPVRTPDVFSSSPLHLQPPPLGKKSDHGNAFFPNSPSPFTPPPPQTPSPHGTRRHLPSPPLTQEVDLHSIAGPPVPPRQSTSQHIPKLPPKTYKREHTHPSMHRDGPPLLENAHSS
Briefly: SOS1 TR-FRET. The following applies: read-out: Target #1 IC50. How it is done: as §1

The next test has as its system off-target. Description: SOS1 AlphaScreen, Target #2. As to the method:
as §1

EGFR, sequence (P00533 25-1210, species assumed): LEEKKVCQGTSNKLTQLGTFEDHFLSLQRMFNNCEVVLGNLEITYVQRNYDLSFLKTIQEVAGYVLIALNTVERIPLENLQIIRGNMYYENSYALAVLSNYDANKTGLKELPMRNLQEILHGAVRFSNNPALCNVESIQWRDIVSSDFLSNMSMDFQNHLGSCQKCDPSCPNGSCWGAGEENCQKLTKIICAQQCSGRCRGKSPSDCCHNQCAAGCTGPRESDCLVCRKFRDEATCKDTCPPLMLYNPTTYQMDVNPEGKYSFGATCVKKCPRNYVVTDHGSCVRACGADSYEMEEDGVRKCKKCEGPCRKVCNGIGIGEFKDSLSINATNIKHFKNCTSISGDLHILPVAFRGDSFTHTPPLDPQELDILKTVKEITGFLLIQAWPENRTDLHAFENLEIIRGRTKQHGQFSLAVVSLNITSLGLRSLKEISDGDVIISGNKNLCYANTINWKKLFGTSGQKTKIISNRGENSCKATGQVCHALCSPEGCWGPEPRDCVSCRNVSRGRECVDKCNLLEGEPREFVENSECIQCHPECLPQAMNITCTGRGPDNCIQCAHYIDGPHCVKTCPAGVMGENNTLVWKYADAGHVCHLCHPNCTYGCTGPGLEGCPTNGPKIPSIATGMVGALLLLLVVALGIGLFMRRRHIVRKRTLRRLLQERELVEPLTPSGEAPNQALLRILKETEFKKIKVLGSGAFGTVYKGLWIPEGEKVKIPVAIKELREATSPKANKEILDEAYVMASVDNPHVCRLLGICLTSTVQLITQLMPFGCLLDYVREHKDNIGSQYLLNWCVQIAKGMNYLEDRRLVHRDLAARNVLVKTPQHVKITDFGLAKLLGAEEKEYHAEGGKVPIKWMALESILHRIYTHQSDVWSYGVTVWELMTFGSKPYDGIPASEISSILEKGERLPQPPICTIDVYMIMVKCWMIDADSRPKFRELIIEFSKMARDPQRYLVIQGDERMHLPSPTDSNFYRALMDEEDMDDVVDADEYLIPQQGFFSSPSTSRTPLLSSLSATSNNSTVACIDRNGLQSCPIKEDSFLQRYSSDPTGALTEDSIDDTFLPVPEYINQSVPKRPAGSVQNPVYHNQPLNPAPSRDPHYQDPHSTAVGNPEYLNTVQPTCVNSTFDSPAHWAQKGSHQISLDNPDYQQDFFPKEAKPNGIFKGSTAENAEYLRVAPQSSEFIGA
UPAR, sequence (Q03405 23-305 limits assumed, species assumed): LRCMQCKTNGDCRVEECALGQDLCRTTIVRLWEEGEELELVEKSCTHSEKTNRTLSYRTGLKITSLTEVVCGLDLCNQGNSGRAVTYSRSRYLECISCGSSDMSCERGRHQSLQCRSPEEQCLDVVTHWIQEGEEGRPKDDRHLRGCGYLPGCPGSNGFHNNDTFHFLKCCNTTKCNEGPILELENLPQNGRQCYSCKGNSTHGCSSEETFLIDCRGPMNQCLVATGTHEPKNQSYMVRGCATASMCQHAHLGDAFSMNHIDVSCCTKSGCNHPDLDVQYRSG

As to `[Cl-].[Cl-].[Mg+2]` [MgCl2, Magnesium chloride], the concentration for half-maximal inhibition (IC50) at EGFR, in the test with off target (ext.), with off target, on LSD1, against UPAR and on SOS1 was over 10 µM in each case. Also, the IC50 with off-target was over 10 µM.

`[Cl-].[Cl-].[Co+2]` [CoCl2, Cobalt(II) chloride]: the IC50 at EGFR is over 10 µM; in the test on off target (ext.) it was over 10 µM; in the test with off target, over 10 µM; on UPAR it was 1 to 10 µM; at SOS1, over 10 µM; in the test with off-target it was over 10 µM.

For the compound `[Cl][Pd][Cl]` [PdCl2, Palladium(II) chloride], the IC50 on EGFR was over 10 µM; in the test on off target (ext.), over 10 µM; with off target, over 10 µM; on LSD1, 1 to 10 µM; at UPAR it was under 1 µM; on SOS1, 1 to 10 µM. The compound also registered an IC50 in the test on off-target of over 10 µM.

Consider `[Cl][Sn][Cl]` [SnCl2, Tin(II) chloride], for which the IC50 on EGFR was over 10 µM; in the test with off target (ext.), over 10 µM; with off target, over 10 µM; on LSD1, over 10 µM; against UPAR, over 10 µM; at SOS1, 1 to 10 µM. In the test with off-target, this compound displayed a 50% inhibitory concentration (IC50) of over 10 µM.

Turning to `[Cl][Fe]([Cl])[Cl]` [FeCl3, Iron(III) chloride], the half-maximal inhibitory concentration (IC50) is over 10 µM at EGFR; over 10 µM in the test with off target (ext.); over 10 µM with off target; over 10 µM at LSD1; over 10 µM at UPAR; 1 to 10 µM at SOS1. Moreover, the IC50 in the test on off-target was over 10 µM.

Turning to `[Cl][Cu][Cl]` [CuCl2, Copper(II) chloride], the 50% inhibitory concentration (IC50) at EGFR was over 10 µM; with off target (ext.), over 10 µM; with off target, over 10 µM; on LSD1 it was over 10 µM; at UPAR, under 1 µM; on SOS1, over 10 µM. In the test with off-target, this compound gave an IC50 of over 10 µM.

Regarding `CC(=O)[O-].[Ag+]` [Ag (CH 3COO), Silver acetate], the 50% inhibitory concentration (IC50) on EGFR is over 10 µM; in the test with off target (ext.), over 10 µM; with off target, over 10 µM; on LSD1 it was 1 to 10 µM; on SOS1, under 1 µM; with off-target it was over 10 µM.

Regarding `[Cl][Fe][Cl]` [FeCl2, Iron(II) chloride], the IC50 at EGFR was over 10 µM; in the test with off target (ext.) it was over 10 µM; in the test on off target, over 10 µM; at LSD1, over 10 µM; against UPAR, over 10 µM; at SOS1, 1 to 10 µM. In the test on off-target, this compound gave an IC50 of over 10 µM.

As for `O=[N+]([O-])[O-].O=[N+]([O-])[O-].O=[N+]([O-])[O-].[Al+3]` [Al(NO3)3, Aluminum nitrate], the IC50 at EGFR is over 10 µM; with off target (ext.), over 10 µM; with off target it was over 10 µM; at LSD1, 1 to 10 µM; at UPAR it was over 10 µM; at SOS1 it was over 10 µM. The IC50 in the test on off-target was over 10 µM.

On to `[Cl][Mn][Cl]` [MnCl2, Manganese(II) chloride], for which the IC50 at EGFR, in the test with off target (ext.), in the test with off target, on LSD1, against UPAR and on SOS1 was over 10 µM in each case. In the test with off-target, the half-inhibitory concentration (IC50) was over 10 µM.

Regarding `[Cl-].[Cl-].[Zn+2]` [ZnCl2, Zinc(II) chloride], the IC50 was over 10 µM on EGFR; over 10 µM in the test on off target (ext.); over 10 µM with off target; over 10 µM on LSD1; under 1 µM at UPAR; over 10 µM at SOS1. In addition, the IC50 in the test with off-target is over 10 µM.

For the compound `[Cl][Ni][Cl]` [NiCl2, Nickel(II) chloride], the IC50 is over 10 µM on EGFR; over 10 µM in the test with off target (ext.); over 10 µM with off target; 1 to 10 µM at LSD1; under 1 µM against UPAR; over 10 µM at SOS1. The same compound displayed an IC50 in the test with off-target of over 10 µM.

For the compound `[Cl][Au]([Cl])[Cl]` [AuCl3, Gold(III) chloride], the IC50 is over 10 µM at EGFR; over 10 µM in the test on off target (ext.); over 10 µM in the test on off target; 1 to 10 µM on LSD1; 1 to 10 µM against UPAR; under 1 µM on SOS1. In the test with off-target, this compound registered an IC50 of over 10 µM.
